Reference: ChEMBL document CHEMBL4837205, “Design, synthesis and biological evaluations of a series of Pyrido[1,2-a]pyrimidinone derivatives as novel selective FGFR inhibitors” (Eur J Med Chem, 2021)
In brackets after ≈: the same amount, converted by molar mass.

Assay: physchem
Settings: buffer, pH 7.4

| SMILES | solubility [µg/mL] |
| --- | --- |
| COc1cc(OC)cc(N(CCNC(C)C)c2ccc3ncc(-c4cnn(CCN(C)C)c4)c(=O)n3c2)c1 | < 10 |
| COc1cc(OC)cc(N(CCNC(C)C)c2ccc3ncc(-c4cnn(C5CN(C(C)=O)C5)c4)c(=O)n3c2)c1 | 59.1 (≈ 108 µM) |
